Values after ≈ are worked out from the molar mass of the structure shown.
Columns and labels:
Aspergillus clavatus [1] = experiment: Antifungal activity against Aspergillus clavatus MTCC 1323 at 250 ug/ml after 74 hrs by Kirby-Bauer method; type: functional; details: MTCC 1323, 74 h, read-out: IZ
Streptococcus pyogenes [2] = experiment: Antibacterial activity against Streptococcus pyogenes MTCC 442 at 250 ug/ml after 24 hrs by Kirby-Bauer method; type: functional; details: MTCC 442, 24 h, read-out: IZ
Human alphaherpesvirus 3 [3] = experiment: Antiviral activity against Varicella-zoster virus Oka expressing thymidine kinase infected in HEL cells assessed as reduction in plaque formation; type: functional, organism-based; details: Human alphaherpesvirus 3, strain Oka vaccine
Aspergillus niger [4] = experiment: Antifungal activity against Aspergillus niger MTCC 282; type: functional
[5] = Cytotoxicity against human HEL cells; type: cell-based
Human alphaherpesvirus 3 [6] = experiment: Antiviral activity against thymidine kinase-deficient Varicella-zoster virus infected in HEL cells assessed as reduction in plaque formation; type: functional, organism-based; details: Human alphaherpesvirus 3, HEL
Aspergillus niger [7] = experiment: Antifungal activity against Aspergillus niger MTCC 282 at 250 ug/ml after 74 hrs by Kirby-Bauer method; type: functional; details: MTCC 282, 74 h, read-out: IZ
Pseudomonas aeruginosa [8] = experiment: Antibacterial activity against Pseudomonas aeruginosa MTCC 424 after 24 hrs by broth dilution method; type: functional; details: MTCC 424, 24 h
Staphylococcus aureus [9] = experiment: Antibacterial activity against Staphylococcus aureus MTCC 96 after 24 hrs by broth dilution method; type: functional; details: MTCC 96, 24 h
Staphylococcus aureus [10] = experiment: Antibacterial activity against Staphylococcus aureus MTCC 96 at 250 ug/ml after 24 hrs by Kirby-Bauer method; type: functional; details: MTCC 96, 24 h, read-out: IZ
[11] = test system: Human immunodeficiency virus 2; experiment: Antiviral activity against HIV2 ROD infected in MT4 cells assessed as inhibition of virus-induced cytopathogenicity by MTT assay; type: functional, organism-based; details: Human immunodeficiency virus 2, ISOLATE ROD
Escherichia coli [12] = experiment: Antibacterial activity against Escherichia coli MTCC 443 at 250 ug/ml after 24 hrs by Kirby-Bauer method; type: functional; details: MTCC 443, 24 h, read-out: IZ
Cytomegalovirus [13] = experiment: Antiviral activity against Cytomegalovirus Davis in HEL cells assessed as reduction in plaque formation; type: functional, organism-based; details: Human betaherpesvirus 5, Davis
[14] = Cytotoxicity against human HEL cells assessed as alteration in cell morphology; type: cell-based
[15] = test system: Human immunodeficiency virus 1; experiment: Antiviral activity against HIV1 3B infected in MT4 cells assessed as inhibition of virus-induced cytopathogenicity by MTT assay; type: functional, organism-based; details: Human immunodeficiency virus 1, 3B
Candida albicans [16] = experiment: Antifungal activity against Candida albicans MTCC 227 at 250 ug/ml after 74 hrs by Kirby-Bauer method; type: functional; details: MTCC 227, 74 h, read-out: IZ
Candida albicans [17] = experiment: Antifungal activity against Candida albicans MTCC 227; type: functional
[18] = Selectivity index, ratio of CC50 for human MT4 cells to IC50 for HIV2 ROD; type: functional
[19] = Selectivity index, ratio of CC50 for human MT4 cells to IC50 for HIV1 3B; type: functional
Pseudomonas aeruginosa [20] = experiment: Antibacterial activity against Pseudomonas aeruginosa MTCC 424 at 250 ug/ml after 24 hrs by Kirby-Bauer method; type: functional; details: MTCC 424, 24 h, read-out: IZ
Cytomegalovirus [21] = experiment: Antiviral activity against Cytomegalovirus AD-169 infected in HEL cells assessed as reduction in plaque formation; type: functional, organism-based; details: Human betaherpesvirus 5, AD-169, HEL
Escherichia coli [22] = experiment: Antibacterial activity against Escherichia coli MTCC 443 after 24 hrs by broth dilution method; type: functional; details: MTCC 443, 24 h
Streptococcus pyogenes [23] = experiment: Antibacterial activity against Streptococcus pyogenes MTCC 442 after 24 hrs by broth dilution method; type: functional; details: MTCC 442, 24 h
[24] = Cytotoxicity against human MT4 cells by MTT assay; type: cell-based
Aspergillus clavatus [25] = experiment: Antifungal activity against Aspergillus clavatus MTCC 1323; type: functional

Structure (SMILES) | zone of inhibition at 250 µg/mL (Aspergillus clavatus [1]) [mm] | zone of inhibition at 250 µg/mL (Streptococcus pyogenes [2]) [mm] | EC50 (Human alphaherpesvirus 3 [3]) [µg/mL] | MIC (Aspergillus niger [4]) [µg/mL] | CC50 [5] [µg/mL] | EC50 (Human alphaherpesvirus 3 [6]) [µg/mL] | zone of inhibition at 250 µg/mL (Aspergillus niger [7]) [mm] | MIC (Pseudomonas aeruginosa [8]) [µg/mL] | MIC (Staphylococcus aureus [9]) [µg/mL] | zone of inhibition at 250 µg/mL (Staphylococcus aureus [10]) [mm] | IC50 [11] [µg/mL] | zone of inhibition at 250 µg/mL (Escherichia coli [12]) [mm] | EC50 (Cytomegalovirus [13]) [µg/mL] | MCC [14] [µg/mL] | IC50 [15] [µg/mL] | zone of inhibition at 250 µg/mL (Candida albicans [16]) [mm] | MIC (Candida albicans [17]) [µg/mL] | Ratio CC50/IC50 [18] | Ratio CC50/IC50 [19] | zone of inhibition at 250 µg/mL (Pseudomonas aeruginosa [20]) [mm] | also measured
[O-]c1on[n+](-c2ccc(Cc3ccc(-[n+]4noc([O-])c4CN4CCN(c5cccc(Cl)c5Cl)CC4)cc3)cc2)c1CN1CCN(c2cccc(Cl)c2Cl)CC1 | 23 | 18 | > 4 | 250 (≈ 304 µM) | 28.7 (≈ 34.9 µM) | > 4 | 23 | 250 (≈ 304 µM) | 125 (≈ 152 µM) | 21 | > 20.8 | 21 | > 20 | 100 | > 20.8 | 21 | 1000 (≈ 1220 µM) | <1 | <1 | 17 | EC50 (Cytomegalovirus [21]): 12.6 µg/mL (≈ 15.3 µM); MIC (Escherichia coli [22]): 125 µg/mL (≈ 152 µM); MIC (Streptococcus pyogenes [23]): 200 µg/mL (≈ 243 µM); CC50 [24]: 20.8 µg/mL (≈ 25.3 µM); MIC (Aspergillus clavatus [25]): 1000 µg/mL (≈ 1220 µM)
Cc1ccc(-[n+]2noc([O-])c2CN2CCN(C)C(c3ccccc3)C2)cc1 (stereo not given) | 21 | 21 | > 20 | 1000 (≈ 2740 µM) | 23.7 (≈ 65 µM) | > 20 | 18 | 100 (≈ 274 µM) | 250 (≈ 686 µM) | 19 | > 14.4 | 16 | > 20 | 100 | > 14.4 | 18 | 200 (≈ 549 µM) | <1 | <1 | 21 | EC50 (Cytomegalovirus [21]): > 20 µg/mL; MIC (Escherichia coli [22]): 500 µg/mL (≈ 1370 µM); MIC (Streptococcus pyogenes [23]): 100 µg/mL (≈ 274 µM); CC50 [24]: 14.4 µg/mL (≈ 39.5 µM); MIC (Aspergillus clavatus [25]): 200 µg/mL (≈ 549 µM)
Cc1ccc(-[n+]2noc([O-])c2CN2CCOCC2)cc1 | 21 | 19 | > 20 | 1000 (≈ 3630 µM) | 38.4 (≈ 139 µM) | > 20 | 18 | 250 (≈ 908 µM) | 100 (≈ 363 µM) | 21 | > 16.6 | 19 | > 20 | 100 | > 16.6 | 23 | 500 (≈ 1820 µM) | <1 | <1 | 18 | EC50 (Cytomegalovirus [21]): > 20 µg/mL; MIC (Escherichia coli [22]): 200 µg/mL (≈ 726 µM); MIC (Streptococcus pyogenes [23]): 250 µg/mL (≈ 908 µM); CC50 [24]: 16.6 µg/mL (≈ 60.2 µM); MIC (Aspergillus clavatus [25]): 500 µg/mL (≈ 1820 µM)
[O-]c1on[n+](-c2ccc(Cc3ccc(-[n+]4noc([O-])c4CN4CCN(c5cccc(Cl)c5)CC4)cc3)cc2)c1CN1CCN(c2cccc(Cl)c2)CC1 | 22 | 19 | > 4 | 1000 (≈ 1330 µM) | > 100 | > 4 | 20 | 500 (≈ 663 µM) | 250 (≈ 332 µM) | 19 | > 13.2 | 18 | 20 (≈ 26.5 µM) | ≥ 20 | > 13.2 | 21 | 1000 (≈ 1330 µM) | <1 | <1 | 17 | EC50 (Cytomegalovirus [21]): > 4 µg/mL; MIC (Escherichia coli [22]): 250 µg/mL (≈ 332 µM); MIC (Streptococcus pyogenes [23]): 200 µg/mL (≈ 265 µM); CC50 [24]: 13.2 µg/mL (≈ 17.5 µM); MIC (Aspergillus clavatus [25]): 1000 µg/mL (≈ 1330 µM)
[O-]c1on[n+](-c2ccc(Cc3ccc(-[n+]4noc([O-])c4CN4CCNCC4)cc3)cc2)c1CN1CCNCC1 | 19 | 17 | > 4 | 250 (≈ 469 µM) | 20 (≈ 37.6 µM) | > 4 | 23 | 100 (≈ 188 µM) | 200 (≈ 376 µM) | 18 | > 14 | 21 | 20 (≈ 37.6 µM) | 100 | > 14 | 21 | 1000 (≈ 1880 µM) | <1 | <1 | 21 | EC50 (Cytomegalovirus [21]): 11.7 µg/mL (≈ 22 µM); MIC (Escherichia coli [22]): 62.5 µg/mL (≈ 117 µM); MIC (Streptococcus pyogenes [23]): 500 µg/mL (≈ 939 µM); CC50 [24]: 14 µg/mL (≈ 26.3 µM); MIC (Aspergillus clavatus [25]): 1000 µg/mL (≈ 1880 µM)
Cc1ccc(-[n+]2noc([O-])c2CN2CCN(c3cccc(Cl)c3Cl)CC2)cc1 | 23 | 19 | > 4 | 500 (≈ 1190 µM) | 28.8 (≈ 68.7 µM) | > 4 | 21 | 1000 (≈ 2380 µM) | 500 (≈ 1190 µM) | 17 | > 31.7 | 21 | > 4 | 20 | > 31.7 | 18 | 250 (≈ 596 µM) | <1 | <1 | 16 | EC50 (Cytomegalovirus [21]): 4 µg/mL (≈ 9.54 µM); MIC (Escherichia coli [22]): 125 µg/mL (≈ 298 µM); MIC (Streptococcus pyogenes [23]): 200 µg/mL (≈ 477 µM); CC50 [24]: 31.7 µg/mL (≈ 75.6 µM); MIC (Aspergillus clavatus [25]): 250 µg/mL (≈ 596 µM)

Reference: ChEMBL document CHEMBL3044741, “Synthesis of novel biologically active methylene derivatives of sydnones” (Med Chem Res, 2013)
